# Measurements published in patent US20210000842A1, “TETRACYCLINE MANAGEMENT OF EGFR INHIBITOR ASSOCIATED DERMATOSES” (Foamix Pharmaceuticals Ltd., priority 2015, published 2021).
# Entries after “also recorded” stand apart in the source; their conditions may differ.
# How the values were obtained:
# [1] = Compatibility study of minocycline hydrochloride with excipients (visual inspection); format: physicochemical; conditions: for Compatibility with MCH: hydrophilic solvents: MCH: excipient 1:250, suspension at 25° C. and 40° C. for maximum of sixty days; for Compatibility with Minocycline HCl: summary, tested after the storage for up to 3 weeks; for Compatibility with MCH: oily emollients and waxes: MCH:excipient 1:250 for oily emollients and 1:50 for waxes, max sixty days; for Compatibility with MCH: oily emollients and waxes / Compatibility with MCH: surfactants: 25° C. and 40° C.; for Compatibility with Minocycline HCl (discussion of compatibility studies): excipient named as label, storage up to 3 weeks; for Compatibility with MCH: surfactants: MCH:excipient 1:50, surfactant solubilized in mineral oil; for Effect of added antioxidant on MCH degradation: MCH suspensions comprising water or non-compatible excipients; for Effect of added anti-oxidant on oxidation of Minocycline HCl: waterless medium of propylene glycol and PEG 200
# Method: (§1) Active agent is incubated with various excipients individually at one or more temperatures and at different ratios of active agent to a single excipient for a certain fixed period or to the point where degradation was suspected. […] Visual inspection is a criterion for indication of compatibility. Any change of color indicates oxidation or degradation. […] Tests are also carried out with combinations of excipients.
# [2] = Doxycycline Hyclate compatibility test; format: physicochemical; conditions: for Visual inspection after the storage at 50° C. / Visual inspection after the storage at 25° C. / Visual inspection after the storage at 40° C.: stored two weeks; for Effect of added anti-oxidant on oxidation of Doxycycline Hyclate: waterless medium of propylene glycol and PEG 200
# Method: as §1
# (§2) A similar compatibility study was conducted for Doxycycline Hyclate and Doxycycline Monohydrate.
# (§3) Different compositions of hydrophilic and hydrophobic solvents containing Doxycycline Hyclate (Set I and Set II) and Doxycycline Monohydrate (Set III) were prepared by weighing the antibiotic in a glass vial and shaking overnight with each solvent investigated.
# Group II included Doxycycline Hyclate mixed with various vehicles with addition of antioxidants like alpha tocopherol, butylated hydroxytoluene (BHT), and ascorbic acid.
# [3] = Doxycycline Monohydrate compatibility test; format: physicochemical; conditions: for Visual inspection after the storage at 25° C. / Visual inspection after the storage at 50° C. / Visual inspection after the storage at 40° C. / Visual inspection at T-0: mixture of 1.04% w/w Doxycycline Monohydrate with the ingredient; for Visual inspection after the storage at 25° C. / Visual inspection after the storage at 50° C. / Visual inspection after the storage at 40° C.: stored two weeks; for Visual inspection at T-0: two weeks study; for Effect of added anti-oxidant on oxidation of Doxycycline Monohydrate: waterless medium of propylene glycol and PEG 200
# Method: Active agent is incubated with various excipients individually at one or more temperatures and at different ratios of active agent to a single excipient for a certain fixed period or to the point where degradation was suspected. The period can be for example 3 or 7 or 14 or 21 or 28 days or longer. Visual inspection is a criterion for indication of compatibility. Any change of color indicates oxidation or degradation. […] Tests are also carried out with combinations of excipients.
# as §2, §3
# A similar compatibility test was performed on another form of Doxycycline—Doxycycline Monohydrate.
# mouse = conditions: cited from earlier work
# [4] = tested on: patients treated with EGFR inhibitors; conditions: patients treated with the EGFR inhibitor (Erlotinib 150 mg QD); cited from earlier work
# [5] = tested on: EGFR inhibitor-induced rash; conditions: cited from earlier work
# [6] = cited from earlier work
# [7] = MCH:excipient 1:50, 25° C. and 40° C., visual inspection
# [8] = mixture of 1.04% w/w Doxycycline Hyclate with the ingredient
# [9] = summary, tested after the storage for up to 3 weeks
# [10] = mixtures of 1.04% w/w, excipient named as label, storage at 25° C., 40° C. and 50° C. for two weeks, listed as Ethanol 95%
# [11] = mixtures of 1.04% w/w, excipient named as label, storage at 25° C., 40° C. and 50° C. for two weeks, listed as ethanol 95%
# [12] = mixtures of 1.04% w/w, excipient named as label, storage at 25° C., 40° C. and 50° C. for two weeks
compound,measurement,setting,value
CCCCCCCCCCCCCCCCCCCCCCO [Behenyl alcohol],Compatibility with MCH: foam adjuvants,[1]; [7],compatible
OCCCCO [Butylene Glycol],Visual inspection after the storage at 50° C.,[2]; [8],Light orange solution
same,Compatibility with Doxycycline Hyclate,[2]; [9],No
same,Visual inspection after the storage at 25° C.,[3],Orange solution
same,Visual inspection after the storage at 50° C.,[3],black solution
same,Compatibility with Doxycycline Monohydrate,[3]; [9],No
same,Compatibility with MCH: hydrophilic solvents,[1]; visual inspection,incompatible
same,Compatibility with Minocycline HCl,[1],No
CCCCCCCCCCCCCCCCO [Cetyl alcohol],Compatibility with MCH: foam adjuvants,[1]; [7],compatible
C[Si]1(C)O[Si](C)(C)O[Si](C)(C)O[Si](C)(C)O[Si](C)(C)O1 [Cyclomethicone 5 NF],Compatibility with Doxycycline Hyclate,[2]; [9],Yes
same,Compatibility with Doxycycline Monohydrate,[3]; [9],Yes
same,Compatibility with Minocycline HCl,[1],Yes
CCOCCOCCO [Diethylene glycol monoethyl ether],Compatibility with MCH: hydrophilic solvents,[1]; visual inspection,incompatible
CC(C)OC(=O)CCCCC(=O)OC(C)C [Diisopropyl adipate],Compatibility with Doxycycline Hyclate,[2]; [9],Yes
same,Compatibility with Doxycycline Monohydrate,[3]; [9],No
same,Compatibility with Minocycline HCl,[1],Yes
CO[C@H]1CO[C@H]2[C@@H]1OC[C@H]2OC [Dimethyl Isosorbide],Visual inspection after the storage at 25° C.,[2]; [8],Yellow solution
same,Visual inspection after the storage at 40° C.,[2]; [8],Brownish orange
same,Visual inspection after the storage at 50° C.,[2]; [8],Orange solution
same,Visual inspection at T-0,"[2]; mixture of 1.04% w/w Doxycycline Hyclate with the ingredient, two weeks study",yellow solution
same,Compatibility with Doxycycline Hyclate,[2]; [9],No
same,Visual inspection after the storage at 25° C.,[3],orange solution
same,Visual inspection after the storage at 40° C.,[3],orange solution
same,Visual inspection after the storage at 50° C.,[3],Orange solution
same,Visual inspection at T-0,[3],yellow solution
same,Compatibility with Doxycycline Monohydrate,[3]; [9],No
same,Compatibility with MCH: hydrophilic solvents,[1]; visual inspection,incompatible
same,Compatibility with Minocycline HCl,[1],No
C[S+](C)[O-] [Dimethyl Sulfoxide],Compatibility with MCH: hydrophilic solvents,[1]; visual inspection,incompatible
CC(C)OC(=O)CCCCC(=O)OC(C)C [Disopropyl adipate],Compatibility with MCH: oily emollients and waxes,[1]; visual inspection,compatible
"C[C@H]1c2cccc(O)c2C(=O)C2=C(O)[C@]3(O)C(=O)C(C(N)=O)=C(O)[C@@H](N(C)C)[C@@H]3[C@@H](O)[C@@H]21 [Doxycycline, doxycycline]",Oral acute toxicity LD50,mouse,1007 mg/kg
C#Cc1cccc(Nc2ncnc3cc(OCCOC)c(OCCOC)cc23)c1 [Erlotinib],Patients who developed a grade 3 rash,[4],9%
same,Patients who developed a rash in all grades,[4],75%
CCO [Ethanol],Compatibility with Doxycycline Hyclate,[2]; [10],stability
same,Compatibility with Doxycycline Hyclate,[2]; [11],stable
same,Compatibility with Doxycycline Hyclate,[2]; [9],Yes
same,Visual inspection after the storage at 25° C.,[3],Brown solution
same,Visual inspection after the storage at 40° C.,[3],Brown solution
same,Visual inspection after the storage at 50° C.,[3],Black solution
same,Compatibility with Doxycycline Monohydrate,[3]; [10],changed their colour from yellow to orange
same,Compatibility with Doxycycline Monohydrate,[3]; [11],oxidized
same,Compatibility with Doxycycline Monohydrate,[3]; [9],No
same,Compatibility with MCH: hydrophilic solvents,[1]; visual inspection,incompatible
same,Compatibility with Minocycline HCl (discussion of compatibility studies),[1],changed their colour from yellow to orange
same,Compatibility with Minocycline HCl,[1],No
OCC(O)CO [Glycerin],Compatibility with Doxycycline Hyclate,[2]; [9],No
same,Compatibility with Doxycycline Monohydrate,[3]; [9],No
same,Compatibility with MCH: hydrophilic solvents,[1]; visual inspection,incompatible
same,Compatibility with Minocycline HCl (discussion of compatibility studies),[1],intensive oxidation
same,Compatibility with Minocycline HCl,[1],No
CCCCCCCCCCCCCCCCCC(=O)OCC(O)CO (stereo not drawn) [Glyceryl monostearate],Compatibility with MCH: surfactants,[1]; visual inspection,incompatible
CCCCCCCCCCCCCC(=O)OC(C)C [Isopropyl myristate],Compatibility with MCH: oily emollients and waxes,[1]; visual inspection,compatible
CC(C)CCCCCCCCCCCCCCC(=O)O [Isostearic acid],Compatibility with Doxycycline Hyclate,[2]; [9],Yes
same,Compatibility with MCH: foam adjuvants,[1]; [7],not compatible
same,Compatibility with Minocycline HCl,[1],No
CC(C)CCCCCCCCCCCCCCCO [Isostearyl alcohol],Compatibility with MCH: foam adjuvants,[1]; [7],compatible
CC1CCC(C(C)C)C(O)C1 (stereo not drawn) [Menthol],Compatibility with MCH: additives,[1]; [7],compatible
CCCCCCCCCCCCCCO [Myristyl alcohol],Compatibility with Doxycycline Hyclate,[2]; [9],Yes
same,Compatibility with MCH: foam adjuvants,[1]; [7],compatible
same,Compatibility with Minocycline HCl,[1],Yes
CCCCCCCCCCC(CO)CCCCCCCC (stereo not drawn) [Octyl dodecanol],Compatibility with Doxycycline Hyclate,[2]; [12],incompatibility
same,Compatibility with Doxycycline Hyclate,[2]; [9],No
same,Compatibility with Doxycycline Monohydrate,[3]; [12],incompatibility
same,Compatibility with Doxycycline Monohydrate,[3]; [9],No
same,Compatibility with MCH: oily emollients and waxes,[1]; visual inspection,compatible
same,Compatibility with Minocycline HCl (discussion of compatibility studies),[1],full compatibility; also recorded: compatible
same,Compatibility with Minocycline HCl,[1],Yes
CCCCCCCC/C=C\CCCCCCCC(=O)O [Oleic acid],Compatibility with MCH: foam adjuvants,[1]; [7],compatible
CCCCCCCC/C=C\CCCCCCCCO [Oleyl alcohol],Compatibility with Doxycycline Hyclate,[2]; [9],Yes
same,Compatibility with MCH: foam adjuvants,[1]; [7],compatible
same,Compatibility with Minocycline HCl,[1],Yes
CCCCCCCCCCCCCCCC(=O)O [Palmitic acid],Compatibility with MCH: foam adjuvants,[1]; [7],compatible
CC(O)CO (stereo not drawn) [Propylene glycol],Compatibility with Doxycycline Hyclate,[2]; [9],No
same,Compatibility with Doxycycline Monohydrate,[3]; [9],No
same,Compatibility with MCH: hydrophilic solvents,[1]; visual inspection,incompatible
same,Compatibility with Minocycline HCl,[1],No
CCCCCCCCCCCCCCCCCC(=O)O [Stearic acid],Compatibility with MCH: foam adjuvants,[1]; [7],compatible
CCCCCCCCCCCCCCCCCCO [Stearyl alcohol],Compatibility with Doxycycline Hyclate,[2]; [9],Yes
same,Compatibility with MCH: foam adjuvants,[1]; [7],compatible
same,Compatibility with Minocycline HCl,[1],Yes
Cc1c(C)c2c(c(C)c1O)CC[C@@](C)(CCC[C@H](C)CCC[C@H](C)CCCC(C)C)O2 [alpha-tocopherol],Effect of added anti-oxidant on oxidation of Doxycycline Hyclate,[2],did not prevent the oxidation
same,Effect of added anti-oxidant on oxidation of Doxycycline Monohydrate,[3],did not prevent the oxidation
same,Effect of added antioxidant on MCH degradation,[1],did not prevent MCH degradation
same,Effect of added anti-oxidant on oxidation of Minocycline HCl,[1],did not prevent the oxidation
O=C1O[C@H]([C@@H](O)CO)C(O)=C1O [ascorbic acid],Effect of added anti-oxidant on oxidation of Doxycycline Hyclate,[2],did not prevent the oxidation
same,Effect of added anti-oxidant on oxidation of Doxycycline Monohydrate,[3],did not prevent the oxidation
same,Effect of added anti-oxidant on oxidation of Minocycline HCl,[1],did not prevent the oxidation
CC[C@@H]1/C=C(\C)C[C@H](C)C[C@H](OC)[C@H]2O[C@@](O)(C(=O)C(=O)N3CCCC[C@H]3C(=O)O[C@H](/C(C)=C/[C@@H]3CC[C@H](Cl)[C@H](OC)C3)[C@H](C)[C@@H](O)CC1=O)[C@H](C)C[C@@H]2OC [pimecrolimus],Lesion counts on treated side of the face,"[5]; half face study, cetuximab, after 2 weeks",significantly less
CCCOC(=O)c1cc(O)c(O)c(O)c1 [propyl gallate],Effect of added antioxidant on MCH degradation,[1],did not prevent MCH degradation
"CCOC(=O)c1ccc(C#Cc2ccc3c(c2)C(C)(C)CCS3)nc1 [tazarotene, Ethyl 6-[2-(4,4-dimethylthiochroman-6-yl)ethynyl] nicotinate]",Clinical benefit on EGFR inhibitor-induced rash,[5]; cream twice a day,no observed clinical benefit
same,Patients in whom the rash was assessed as more severe,[5]; cream twice a day,10%
O [water],Effect of addition of water on MCH suspended in compatible excipients,[1]; minimal quantities of water (100 μL) added,prompt degradation of MCH
Cyclomethicone,Compatibility with MCH: oily emollients and waxes,[1]; visual inspection,compatible
Doxycycline hyclate,Lipid solubility,[6],high degree
same,Solubility in water,[6],soluble
SPAN 40,Compatibility with MCH: surfactants,[1]; visual inspection,incompatible
SPAN 60,Compatibility with MCH: surfactants,[1]; visual inspection,incompatible
SPAN 80,Compatibility with MCH: surfactants,[1]; visual inspection,incompatible
Sorbitan Monolaurate,Visual inspection after the storage at 25° C.,[2]; [8],Brown solution
same,Visual inspection after the storage at 40° C.,[2]; [8],Brown solution
same,Visual inspection after the storage at 50° C.,[2]; [8],Black solution
same,Compatibility with Doxycycline Hyclate,[2]; [9],No
same,Visual inspection after the storage at 25° C.,[3],orange solution
same,Visual inspection after the storage at 40° C.,[3],Brown solution
same,Visual inspection after the storage at 50° C.,[3],brown solution
same,Visual inspection at T-0,[3],Brown mixture
same,Compatibility with Doxycycline Monohydrate,[3]; [9],No
same,Compatibility with Minocycline HCl,[1],No
Sorbitan Monostearate,Compatibility with Doxycycline Hyclate,[2]; [9],Yes
same,Compatibility with Minocycline HCl,[1],Yes
Sorbitan sesquistearate,Compatibility with MCH: surfactants,[1]; visual inspection,incompatible
